Measured values reported in the supplement of paper PMC6723410.

test system: GUMC-403; test: viability at highest tested concentration (max response) relative to DMSO (% of DMSO control); higher = less cytotoxic; conditions: library / dose series: MIPE library, 11-point 1:3 dilution; top concentration 46.1 µM; 48 h
How it was run: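 Patient-derived GUMC-403 papilloma cells grown by conditional reprogramming were plated at 700/well in 5 μL F + Y medium in 1536-well plates and incubated overnight at 37 °C. They then received 23 nL of MIPE 4.0 compounds by pin tool (11-point 1:3 series) for 48 h. CellTiter-Glo luminescence was read on a ViewLux and normalised with DMSO wells as 100% and empty wells as 0%. The value is viability at the highest tested concentration relative to DMSO control.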

SMILES	viability
COc1ccc(CCC(=O)Nc2nc3ccc(Cl)cc3s2)cc1OC	47.9
C=C1C(=O)OC(CCCCCCCC)C1C(=O)O (stereo unspecified)	121
O=C1CCC[C@@H]2[C@H]3CCC[N+]4([O-])CCC[C@@H](CN12)[C@@H]34 (stereo partly specified)	106
Nc1nc(Cl)nc2c1ncn2[C@H]1C[C@H](O)[C@@H](CO)O1	120
CC(C)(O)CC[C@@H](O)[C@](C)(O)[C@H]1CC[C@@]2(O)C/3=C/C(=O)[C@@H]4C[C@@H](O)[C@@H](O)C[C@]4(C)[C@H]3CC[C@]12C	111
CC(N[C@H]1C[C@@H]1c1ccccc1)c1ccc2c(c1)OCCO2 (stereo partly specified)	129
C[C@]12CCC(=O)C=C1CC[C@@H]1[C@@H]2[C@@H](O)C[C@@]2(C)[C@H]1CC[C@]2(O)C(=O)CO	135
CCC1=C(C)CN(C(=O)NCCc2ccc(S(=O)(=O)NC(=O)N[C@H]3CC[C@H](C)CC3)cc2)C1=O	113
CN1\C(=C(O)/C2=C(C=C(Cl)S2)[S+]1([O-])=O)C(=O)NC3=NC=CC=C3	67.8
Cc1[nH]c(/C=C2\C(=O)Nc3ccc([S+](=O)([O-])Cc4c(Cl)cccc4Cl)cc32)c(C)c1C(=O)N1CCC[C@@H]1CN1CCCC1	113
C[C@]\12CC[C@H](O)CC1=C/CC3C2CC[C@@]\4(C)C3C\C=C4[N]5C=NC6=C5C=CC=C6 (stereo partly specified)	108
Cc1ccc(C(=O)c2cc(O)c(O)c([N+](=O)[O-])c2)cc1	102
CN1CCN(CCCN2c3ccccc3Sc3ccc(C(F)(F)F)cc32)CC1	79.1
O=C1c2c(O)cc(O)cc2OC(c2ccc(O)c(O)c2)C1O (stereo unspecified)	116
COc1ccc2cccc(CCNC(C)=O)c2c1	108
COc1cc2c(cc1OC)CN(CCc1ccc(NC(=O)c3cc(OC)c(OC)cc3NC(=O)c3cnc4ccccc4c3)cc1)CC2	100
C[C@]12CC[C@H]3[C@@H](CC[C@@]45O[C@@H]4C(O)=C(C#N)C[C@]35C)[C@@H]1CC[C@@H]2O	124
CC(C(=O)O)c1ccc(-c2ccccc2)c(F)c1 (stereo unspecified)	110
C[S+](=O)([O-])Nc1ccc([N+](=O)[O-])cc1Oc1ccccc1	113
CCOc1ccccc1OCCNC(C)Cc1ccc(OC)c([S+](N)(=O)[O-])c1 (stereo unspecified)	135

SMILES	viability
C[C@@H](Oc1cc(-c2cnn(C3CCNCC3)c2)cnc1N)c1c(Cl)ccc(F)c1Cl	76.6
C[C@H]1CC2C3CCC/4=C/C(=O)/C=C\[C@]4(C)[C@@]3(F)[C@@H](O)C[C@]2(C)[C@@]1(O)C(=O)CO (stereo partly specified)	127
COC1=CC=C(C=C1)C/2=C(OC3O[C@@H](C)[C@H](O)[C@@H](O)[C@H]3O)/C(=O)C4=C(O2)C(=C(OC5O[C@H](CO)[C@@H](O)[C@H](O)[C@H]5O)C=C4O)CC=C(C)C (stereo partly specified)	117
C[C@H]1[C@H](NC(=O)/C(=N/OC(C)(C)C(=O)O)c2csc(N)n2)C(=O)N1[S+](=O)([O-])O	114
Nc1ncnc2c1ncn2[C@@H]1O[C@H](CO)C[C@H]1O	97.3
C[C@H](Cc1ccc(O)c(O)c1)[C@@H](C)Cc1ccc(O)c(O)c1	110
O=[S+]([O-])(F)Cc1ccccc1	84.1
CNC(=O)c1ccc(-c2cnc3ncc(Cc4ccc5ncccc5c4)n3n2)cc1F	103
Cc1onc(-c2ccccc2)c1C(=O)N[C@@H]1C(=O)N2[C@@H]1SC(C)(C)[C@@H]2C(=O)[O-].[Na+]	109
O=C([O-])C[C@H](O)C[C@H](O)/C=C/c1c(C2CC2)nc2ccccc2c1-c1ccc(F)cc1	92.1
C[C@@]12C[C@@]3(O)O[C@@H](O1)[C@]1(COC(=O)c4ccccc4)[C@H]3C[C@@]12O[C@@H]1O[C@H](CO)[C@@H](O)[C@H](O)[C@H]1O	115
NC/1=N/[C@]2(COC[C@H]2CS1)C3=CC(=CC=C3F)NC(=O)C4=NC=C(F)C=C4	117
Cc1c(OCC(F)(F)F)ccnc1C[S+]([O-])c1nc2ccccc2[nH]1 (stereo unspecified)	82.7
COCCOC(=O)C/1=C(C)/NC/2=C(C1C3=CC=CC(=C3)O)/C(=O)CC(C2)C4=C(OC)C=CC=C4 (stereo unspecified)	79.8
O=C(NC1CC1)c1cccc(-c2ccc3c(NC(=O)C4CC4)n[nH]c3c2)c1	110
CC1(C)CCC(=C(CN2CCN(CC2)C3=CC=C(C=C3)C(=O)N[S+]([O-])(=O)C4=CC(=C(N[C@H](CCN5CCOCC5)CSC6=CC=CC=C6)C=C4)[S+]([O-])(=O)C(F)(F)F)\C1)/C7=CC=C(Cl)C=C7	97
O=C1NC(=O)[C@@H](c2cn3c4c(cccc24)CCC3)[C@@H]1c1c[nH]c2ccccc12	102
Cc1cc(Nc2cc(CN3CCOCC3)c3nc(C)c(Cc4ccc(Cl)cc4F)n3n2)[nH]n1	74.1
C[S+]([O-])(=O)C1=CC=C(C=C1)C/2=C(/C(=O)OC2)C3=CC=CC=C3	122

same assay, conditions: library / dose series: MIPE library, 11-point 1:3 dilution; top concentration 92.2 µM; 48 h

SMILES	viability
C=C1CCC2[C@](C)(CO)C(O)CC[C@]2(C)C1C/C=C1/C(=O)OCC1O (stereo partly specified)	106
CC(C)(Oc1ccc(C2CC2(Cl)Cl)cc1)C(=O)O (stereo unspecified)	101
